Reference: US4966893A, “Method for treatment of senile dementia” (priority 1989, dated 1990)

Legend:
[1] = system: synaptosomes; experiment: electrically stimulated 3H-acetylcholine release from perfused synaptosomes; type: cell-based, rat; conditions: for electrically stimulated release of ACh (S2/S1 ratio): 10^-6 M drug during the last 25 minutes of perfusion, electrical field stimulation, FIGS. 2 and 3
Description: Using a different protocol, synaptosomes, which had been previously incubated with ^3 H-choline, as in the first series of experiments, were continually perfused with HEPES-buffered Krebs solution. The release of ACh was effected by subjecting the synaptosomes to electrical field stimulation, which more closely mimics physiological stimulation. […] The results obtained by calculating the ratio of the amounts of ACh released during the two periods of electrical stimulation (the areas under the curves, S2/S1) indicate that both Rb1 and Rg1 increase the electrically stimulated release. In addition, Rg1 stimulates the resting release of ^3 H-ACh, as indicated, by the increase in the resting efflux of ^3 H-ACh when the drug was first added. While the net amount of ^3 H-ACh released in each run can vary, depending on the amount of protein on the filter and aging of the synaptosomes, the S2/S1 ratio remains quite constant from run to run using a given chamber. Therefore, in each experiment the same chamber was used for both control and test-drug runs.

[2] = system: synaptosomes from whole rat brain; experiment: release of 3H-ACh from synaptosomes under low [K] and high [K] conditions; type: cell-based; conditions: FIG. 1
Description: Pinched off nerve endings (synaptosomes) from whole rat brain were first incubated in the presence of the precursor ^3 H-choline, which is converted intracellularly to ^3 H-ACh. The release of ACh from synaptosomes was quantitated under low [K] and high [K] conditions intended to simulate physiological stimulation.

[3] = system: rat brain synaptosomes; experiment: resting and voltage dependent uptake of 45Ca into synaptosomes; type: cell-based; conditions: compared with depolarized (52.5 K) uptake, FIG. 6
Description: If this compound were acting as a non-specific depolarizing agent, one would predict the resting uptake of ^45 Ca would be stimulated several fold, to the same level as the depolarized (52.5 K) uptake.

Row | SMILES | electrically stimulated release of ACh (S2/S1 ratio) [1] | resting release (resting efflux) of 3H-ACh ([1]; 10^-6 M drug, when the drug was first added) | release of 3H-ACh [2] | resting uptake of 45Ca [3]
1 | CC(C)=CCC[C@](C)(O[C@@H]1O[C@H](CO)[C@@H](O)[C@H](O)[C@H]1O)[C@H]1CC[C@]2(C)[C@@H]1[C@H](O)C[C@@H]1[C@@]3(C)CC[C@H](O)C(C)(C)[C@@H]3[C@@H](O[C@@H]3O[C@H](CO)[C@@H](O)[C@H](O)[C@H]3O)C[C@]12C [Rg1, ginsenoside Rg1] | increase | stimulates | – | –
2 | CC(C)=CCC[C@](C)(O[C@@H]1O[C@H](CO[C@@H]2O[C@H](CO)[C@@H](O)[C@H](O)[C@H]2O)[C@@H](O)[C@H](O)[C@H]1O)[C@H]1CC[C@]2(C)[C@@H]1[C@H](O)C[C@@H]1[C@@]3(C)CC[C@H](O[C@@H]4O[C@H](CO)[C@@H](O)[C@H](O)[C@H]4O[C@@H]4O[C@H](CO)[C@@H](O)[C@H](O)[C@H]4O)C(C)(C)[C@@H]3CC[C@]12C [Rb1, ginsenoside Rb1] | increase | – | increased | only a minimal increase
